{
  "source": "patent US20130089505A1",
  "about": "“SINGLE VIAL FORMULATION FOR MEDICAL GRADE CYANOACRYLATE” (priority 2007, published 2013)",
  "test": "Viscosity of cyanoacrylate monomer, oligomer and formulation",
  "assay_type": "physicochemical",
  "conditions": "monomer free of 4-methoxyphenol and SO2",
  "text": "In one embodiment, an alkyl cyanoacrylate monomer can be treated to form an alkyl cyanoacrylate oligomer with viscosity greater than the alkyl cyanoacrylate monomer. For example, an n-hexyl cyanoacrylate monomer can be treated to form an n-hexyl cyanoacrylate oligomer. Preferred oligomers result from photochemical treatment of an alkyl cyanoacrylate monomer, to produce a mixture that includes partially polymerized cyanoacrylate and that has a higher viscosity than the alkyl cyanoacrylate monomer from which it is formed. For example, the viscosity of the alkyl cyanoacrylate oligomer can advantageously be from about 10 centipoise to about 1000 centipoise and the viscosity of the alkyl cyanoacrylate monomer, from which the alkyl cyanoacrylate oligomer is formed, can be from about 2 centipoise to about 5 centipoise as measured by a rheometer. Typically, the oligomer will have a viscosity of from about 10 centipoise to about 50 centipoise.\nThe purified n-hexyl cyanoacrylate monomer from Example 1, containing 4-methoxyphenol, was treated with Aldrich HQ & MEHQ inhibitor remover, Sigma-Aldrich, Inc., St. Louis, Mo., USA (2005-2006 Catalog #306320), to remove the p-methoxyphenol, followed by bubbling argon through the n-hexyl cyanoacrylate monomer to remove SO2. The viscosity of the purified n-hexyl cyanoacrylate, free of 4-methoxyphenol and SO2, was ˜4 centipoise. […]",
  "data": [
    {"substance": "n-hexyl cyanoacrylate", "values": [
      {"measurement": "viscosity", "value": "~4", "unit": "centipoise"}
    ]}
  ]
}
